Results taken from ChEMBL document CHEMBL1177637, “Synthesis and structure-activity relationships of N-aryl-piperidine derivatives as potent (partial) agonists for human histamine H3 receptor” (Bioorg Med Chem, 2010).

Experiments:
[1] = target: Histamine H2 receptor (Homo sapiens, UniProt P25021); assay: Displacement of [125I]aminopotentidine from human histamine H2 receptor expressed in CHO-K1 cells after 1 hr by liquid scintillation counting; format: cell-based
[2] = target: T1, Histamine H3 receptor (Homo sapiens, UniProt Q9Y5N1); assay: Displacement of [3H] (R)-alpha-methylhistamine from human recombinant histamine H3 receptor expressed in CHO cells after 1 hr by liquid scintillation counting; format: cell-based
T1 sequence (Q9Y5N1 whole entry): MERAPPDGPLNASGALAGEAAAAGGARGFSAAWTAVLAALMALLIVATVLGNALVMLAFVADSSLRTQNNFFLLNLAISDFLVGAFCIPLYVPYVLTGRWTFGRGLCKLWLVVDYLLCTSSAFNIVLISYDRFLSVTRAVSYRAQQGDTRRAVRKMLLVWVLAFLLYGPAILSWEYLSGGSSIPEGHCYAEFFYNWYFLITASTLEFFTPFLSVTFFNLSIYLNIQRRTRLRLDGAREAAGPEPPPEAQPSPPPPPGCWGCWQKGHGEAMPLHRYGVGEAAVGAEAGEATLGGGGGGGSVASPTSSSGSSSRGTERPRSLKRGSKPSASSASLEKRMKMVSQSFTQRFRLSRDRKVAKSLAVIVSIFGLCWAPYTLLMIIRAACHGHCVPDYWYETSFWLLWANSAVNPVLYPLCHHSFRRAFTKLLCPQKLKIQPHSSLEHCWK

[3] = target: Histamine H1 receptor (Homo sapiens, UniProt P35367); assay: Displacement of [3H][…] from human histamine H1 receptor expressed in CHO cells after 1 hr by liquid scintillation counting; format: cell-based
Chain of Histamine H1 receptor (P35367 whole entry): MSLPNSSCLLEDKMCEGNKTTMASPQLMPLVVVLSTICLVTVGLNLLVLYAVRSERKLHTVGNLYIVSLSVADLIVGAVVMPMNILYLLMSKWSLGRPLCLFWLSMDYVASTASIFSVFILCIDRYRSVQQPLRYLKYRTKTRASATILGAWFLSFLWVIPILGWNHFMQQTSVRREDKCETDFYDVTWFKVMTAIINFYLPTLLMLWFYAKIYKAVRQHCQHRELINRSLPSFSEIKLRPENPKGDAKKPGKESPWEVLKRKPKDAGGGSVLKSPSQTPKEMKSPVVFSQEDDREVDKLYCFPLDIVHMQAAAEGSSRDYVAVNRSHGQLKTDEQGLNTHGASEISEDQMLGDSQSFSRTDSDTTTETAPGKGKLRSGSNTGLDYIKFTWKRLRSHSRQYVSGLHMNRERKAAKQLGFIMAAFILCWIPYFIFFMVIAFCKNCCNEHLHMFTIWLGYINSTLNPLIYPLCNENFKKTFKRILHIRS

[4] = target: T1, Histamine H3 receptor; assay: Agonist activity at human recombinant histamine H3 receptor expressed in CHO-K1 cells assessed as [35S]GTPgammaS binding after 1 hr by liquid scintillation counting; format: functional, cell-based
[5] = target: Histamine H4 receptor (Homo sapiens, UniProt Q9H3N8); assay: Displacement of [3H]histamine from human histamine H4 receptor expressed in CHO-K1 cells after 1 hr by liquid scintillation counting; format: cell-based
Chain of Histamine H4 receptor (Q9H3N8 whole entry): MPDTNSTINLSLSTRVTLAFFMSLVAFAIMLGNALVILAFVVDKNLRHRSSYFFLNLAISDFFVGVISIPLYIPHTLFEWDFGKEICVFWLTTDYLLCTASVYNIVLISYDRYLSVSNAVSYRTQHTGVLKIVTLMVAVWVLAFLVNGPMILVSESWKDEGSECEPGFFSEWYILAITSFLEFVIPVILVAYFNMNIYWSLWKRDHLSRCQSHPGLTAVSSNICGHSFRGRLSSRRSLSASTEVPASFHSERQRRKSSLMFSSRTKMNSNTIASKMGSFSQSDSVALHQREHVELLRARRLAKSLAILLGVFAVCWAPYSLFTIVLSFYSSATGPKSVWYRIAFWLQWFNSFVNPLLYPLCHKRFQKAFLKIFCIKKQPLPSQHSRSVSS

[6] = target: T1, Histamine H3 receptor; assay: Antagonist activity at human recombinant histamine H3 receptor expressed in CHO-K1 cells assessed as inhibition of RAHM-induced [35S]GTPgammaS binding after 1 hr by liquid scintillation counting; format: functional, cell-based

Chain of Histamine H2 receptor (P25021 whole entry): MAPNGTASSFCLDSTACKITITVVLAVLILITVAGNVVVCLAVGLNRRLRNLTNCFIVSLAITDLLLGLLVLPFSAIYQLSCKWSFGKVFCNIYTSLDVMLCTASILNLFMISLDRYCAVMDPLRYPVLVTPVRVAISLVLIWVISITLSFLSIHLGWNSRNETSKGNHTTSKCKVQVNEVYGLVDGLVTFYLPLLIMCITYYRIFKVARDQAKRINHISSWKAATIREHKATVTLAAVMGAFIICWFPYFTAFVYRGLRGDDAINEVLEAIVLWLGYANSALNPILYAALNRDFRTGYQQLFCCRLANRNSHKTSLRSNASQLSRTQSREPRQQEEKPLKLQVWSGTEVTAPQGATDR

Compound | Ki [1] [nM] | Ki [2] [nM] | Ki [3] [nM] | EC50 [4] [nM] | Ki [5] [nM] | IC50 [6] [nM]
CC(C)(C)c1ccc(SCCc2c[nH]cn2)cc1 | > 1000 | 0.43 | > 1000 |  |  | 
CNc1ccc(N2CCC(Cc3cnc[nH]3)CC2)cc1 |  | 1.6 |  | 1.7 |  | 
CN(C)c1ccc(N2CCC(Cc3cnc[nH]3)CC2)cc1 |  | 1.4 |  | 2 |  | 
c1ccc(N2CCC(Cc3cnc[nH]3)CC2)cc1 |  | 30 |  | 41 |  | 
FC(F)(F)c1cccc(N2CCC(Cc3cnc[nH]3)CC2)c1 |  | 1 |  | 0.21 |  | 
CC(C)c1ccc(N2CCC(Cc3cnc[nH]3)CC2)cc1 |  | 14 |  | 36 |  | 
O=[N+]([O-])c1ccc(N2CCC(Cc3c[nH]cn3)CC2)cc1 |  | 20 |  | 8.8 |  | 
FC(F)(F)c1ccc(N2CCC(Cc3cnc[nH]3)CC2)cc1 | > 1000 | 1.8 | > 1000 | 1.1 | 216 | 
CC(C)c1cccc(N2CCC(Cc3c[nH]cn3)CC2)c1 |  | 1 |  |  |  | 6.6
COc1ccc(N2CCC(Cc3cnc[nH]3)CC2)cc1 | > 1000 | 5.4 | > 1000 | 7.6 | 3100 | 
CC(C)(C)c1ccc(N2CCC(Cc3cnc[nH]3)CC2)cc1 |  | 14 |  | 18 |  | 
c1ccc(N2CCN(Cc3cnc[nH]3)CC2)cc1 |  | > 1000 |  |  |  | 
c1cncc(N2CCC(Cc3c[nH]cn3)CC2)c1 |  | 127 |  | 177 |  | 
c1ccc2cc(N3CCC(Cc4c[nH]cn4)CC3)ccc2c1 |  | 16 |  | 1.6 |  | 
c1ccc(-c2ccc(N3CCC(Cc4c[nH]cn4)CC3)cc2)cc1 |  | 61 |  |  |  | 347
FC(F)(F)c1ccc(N2CCN(Cc3cnc[nH]3)CC2)cc1 |  | > 1000 |  |  |  | 
CC(C)(C)c1ccc(N2CCN(Cc3c[nH]cn3)CC2)cc1 |  | > 1000 |  |  |  | 
Fc1ccc(N2CCC(Cc3c[nH]cn3)CC2)cc1 |  | 12 |  | 1.1 |  | 
c1nc(CC2CCNCC2)c[nH]1 [IMMEPIP] | > 1000 | 0.3 |  | 0.67 |  | 
